{"source": "patent US9982234B2", "about": "“Culture medium composition for improving regenerative capacity of stem cells, and stem cell culturing method using same” (R BIO CO., LTD., priority 2013, dated 2018)", "format_in_all_cases": "cell-based, human", "key": {"[1]": {"tested_on": "adipose mesenchymal stem cells", "test": "Viability of stem cells (Luna automated cell counter)", "set-up": "viability of stem cells: unit not given here", "conditions": "for effect on the viability of the cells: 4 days of culture, result in words; for viability of stem cells: mean n=3", "experimental": "(§1) The adipose mesenchymal stem cells of three persons, obtained by subculture to passage 3 in Example 1, were seeded into each of the following media and cultured for 4 days. During 4 days of culture, the morphology of the cells was observed. In addition, the size, viability and CDPL (cell population doubling level) of the cells were measured and expressed as mean values.\n(§2) While the adipose mesenchymal stem cells isolated in Example 1 was cultured in each of the media, the adipose mesenchymal stem cells were collected at different days of culture, and the viability, cell size and CPDL of the cells were measured. Also, telomerase activity was measured for the cells subcultured to passage 3. The Alnus japonica extract in medium 11 was prepared in the following manner.\nThe viability of the stem cells was measured using Luna™ automated cell counter (n=3)."}, "[2]": {"tested_on": "adipose mesenchymal stem cells", "test": "Morphology of stem cells under phase contrast microscope", "conditions": "4 days of culture; result in words", "experimental": "as §1\nThe morphology of the stem cells was observed under a phase contrast microscope and photographed (see FIG. 1)."}, "[3]": {"tested_on": "adipose mesenchymal stem cells", "test": "Telomerase activity of stem cells (Telo TAGGG Telomerase PCR ELISA kit)", "set-up": "telomerase activity (N = 3): unit not given here", "conditions": "for telomerase activity (N = 3): cells cultured to passage 3", "experimental": "as §2\nAdipose mesenchymal stem cells isolated from persons in their 40s, 50s and 60s according to the method of Example 1 were cultured to passage 3 in each of the media shown in Table 4 above, and then the telomerase activity of the stem cells was measured using Telo TAGGG Telomerase PCR ELISA kit (Roche)."}, "[4]": {"tested_on": "adipose mesenchymal stem cells", "test": "Size of stem cells (Luna automated cell counter)", "conditions": "for effect on the size of the cells: 4 days of culture, result in words; for size of stem cells: mean n=3", "experimental": "as §1, §2\nThe adipose mesenchymal stem cells isolated in Example 1 were seeded in each of the media, and then treated with trypsin at different days of culture. Next, the adipose mesenchymal stem cells were collected, and the size (μm) of the stem cells was measured using Luna™ automated cell counter (n=3)."}, "[5]": {"tested_on": "adipose mesenchymal stem cells", "test": "Cell population doubling level (CPDL) of stem cells", "experimental": "as §1, §2\nThe cell population doubling level (CPDL) of the stem cells was calculated using the following equation: CPDL=[…], wherein Nfinal: the number of finally obtained cells; and Ninitial: the number of initially seeded cells."}, "[6]": {"conditions": "Day 1 post seeding, 20 nM in M9 medium"}, "[7]": {"conditions": "Day 1 post seeding, 50 nM in M9 medium"}, "[8]": {"conditions": "Day 2 post seeding, 20 nM in M9 medium"}, "[9]": {"conditions": "Day 2 post seeding, 50 nM in M9 medium"}, "[10]": {"conditions": "Day 3 post seeding, 20 nM in M9 medium"}, "[11]": {"conditions": "Day 3 post seeding, 50 nM in M9 medium"}, "[12]": {"conditions": "Day 4 post seeding, 20 nM in M9 medium"}, "[13]": {"conditions": "Day 4 post seeding, 50 nM in M9 medium"}}, "data": [{"molecule": "COC1=C(OC)C(=O)C(C/C=C(\\C)CC/C=C(\\C)CC/C=C(\\C)CC/C=C(\\C)CC/C=C(\\C)CC/C=C(\\C)CC/C=C(\\C)CC/C=C(\\C)CC/C=C(\\C)CCC=C(C)C)=C(C)C1=O", "note": "[Coenzyme Q10, coenzyme Q-10]", "values": [{"measurement": "effect on the viability of the cells", "setting": "[1]", "value": "no significant effect on the viability"}, {"measurement": "effect on the morphology of the cells", "setting": "[2]", "value": "no significant effect on the morphology"}, {"measurement": "telomerase activity (N = 3)", "setting": "[3]; 5 μM in M9 medium", "value": 2.817}, {"measurement": "telomerase activity (N = 3)", "setting": "[3]; 10 μM in M9 medium", "value": 1.964}, {"measurement": "effect on the size of the cells", "setting": "[4]", "value": "no significant effect on the size"}]}, {"molecule": "Cc1c(-c2cnccn2)ssc1=S", "note": "[Oltipraz, oltipraz]", "values": [{"measurement": "telomerase activity (N = 3)", "setting": "[3]; 7 μM in M9 medium", "value": 1.968}, {"measurement": "telomerase activity (N = 3)", "setting": "[3]; 10 μM in M9 medium", "value": 2.137}]}, {"molecule": "Oc1ccc(C=Cc2cc(O)cc(O)c2)cc1", "note": "[Resveratrol]", "values": [{"measurement": "telomerase activity (N = 3)", "setting": "[3]; 1 μM in M9 medium", "value": 2.042}, {"measurement": "telomerase activity (N = 3)", "setting": "[3]; 2 μM in M9 medium", "value": 1.654}]}, {"molecule": "CC(C)(C)c1cc(O)ccc1O", "note": "[TBH-Q, T-BHQ]", "values": [{"measurement": "telomerase activity (N = 3)", "setting": "[3]; 5 μM in M9 medium", "value": 2.524}, {"measurement": "telomerase activity (N = 3)", "setting": "[3]; 20 μM in M9 medium", "value": 2.838}]}, {"molecule": "apelin", "values": [{"measurement": "effect on the viability of the cells", "setting": "[1]", "value": "no significant effect on the viability"}, {"measurement": "viability of stem cells", "setting": "[1]; [6]", "value": 97.2}, {"measurement": "viability of stem cells", "setting": "[1]; [7]", "value": 91.7}, {"measurement": "viability of stem cells", "setting": "[1]; [8]", "value": 98.9}, {"measurement": "viability of stem cells", "setting": "[1]; [9]", "value": 100}, {"measurement": "viability of stem cells", "setting": "[1]; [10]", "value": 98.8}, {"measurement": "viability of stem cells", "setting": "[1]; [11]", "value": 98.8}, {"measurement": "viability of stem cells", "setting": "[1]; [12]", "value": 99.4}, {"measurement": "viability of stem cells", "setting": "[1]; [13]", "value": 99.2}, {"measurement": "cell population doubling level (CPDL)", "setting": "[5]; Day 0 post seeding, 20 nM in M9 medium", "value": 0.00}, {"measurement": "cell population doubling level (CPDL)", "setting": "[5]; Day 0 post seeding, 50 nM in M9 medium", "value": 0.00}, {"measurement": "cell population doubling level (CPDL)", "setting": "[5]; [6]", "value": 0.89}, {"measurement": "cell population doubling level (CPDL)", "setting": "[5]; [7]", "value": 0.56}, {"measurement": "cell population doubling level (CPDL)", "setting": "[5]; [8]", "value": 2.84}, {"measurement": "cell population doubling level (CPDL)", "setting": "[5]; [9]", "value": 1.65}, {"measurement": "cell population doubling level (CPDL)", "setting": "[5]; [10]", "value": 6.54}, {"measurement": "cell population doubling level (CPDL)", "setting": "[5]; [11]", "value": 5.11}, {"measurement": "cell population doubling level (CPDL)", "setting": "[5]; [12]", "value": 9.28}, {"measurement": "cell population doubling level (CPDL)", "setting": "[5]; [13]", "value": 8.20}, {"measurement": "ability to proliferate", "setting": "[5]; cultured in medium containing the substance, result in words", "value": "proliferation ability efficiently increased"}, {"measurement": "effect on the morphology of the cells", "setting": "[2]", "value": "no significant effect on the morphology"}, {"measurement": "telomerase activity (N = 3)", "setting": "[3]; 5 nM in M9 medium", "value": 2.838}, {"measurement": "telomerase activity (N = 3)", "setting": "[3]; 20 nM in M9 medium", "value": 3.068}, {"measurement": "telomerase activity compared between media", "setting": "[3]; 20 nM, passage 3, result in words", "value": "highest telomerase activity"}, {"measurement": "effect on the size of the cells", "setting": "[4]", "value": "no significant effect on the size"}, {"measurement": "size of stem cells", "setting": "[4]; [6]", "value": 19.0, "unit": "μm"}, {"measurement": "size of stem cells", "setting": "[4]; [7]", "value": 18.6, "unit": "μm"}, {"measurement": "size of stem cells", "setting": "[4]; [8]", "value": 18.3, "unit": "μm"}, {"measurement": "size of stem cells", "setting": "[4]; [9]", "value": 15.6, "unit": "μm"}, {"measurement": "size of stem cells", "setting": "[4]; [10]", "value": 18.2, "unit": "μm"}, {"measurement": "size of stem cells", "setting": "[4]; [11]", "value": 18.0, "unit": "μm"}, {"measurement": "size of stem cells", "setting": "[4]; [12]", "value": 18.5, "unit": "μm"}, {"measurement": "size of stem cells", "setting": "[4]; [13]", "value": 17.9, "unit": "μm"}]}]}
